The source made the active and inactive calls.

The term IC50 denotes the concentration needed to halve the response being measured. As usually defined, the EC50 is the concentration needed to bring the measured effect to its halfway point.

For experiment [1], the target named is Sphingosine 1-phosphate receptor 2 (Homo sapiens, UniProt O95136). In words: Late stage counterscreen assay for S1P4 antagonists: Fluorescence dose response cell-based screening assay for antagonists of the Sphingosine 1-Phosphate Receptor 2 (S1P2). [Related pubchem assays (depositor defined):AID1510, AID1524, AID1692, AID1853, AID2332, AID489009, AID489017]. It is filed as functional. Background: Counterscreens check selectivity or assay interference.

The target in experiment [2] is Sphingosine 1-phosphate receptor 5 (Homo sapiens, UniProt Q9H228). Kind of experiment: Late stage counterscreen assay for S1P4 antagonists: Fluorescence dose response cell-based screening assay for antagonists of the Sphingosine 1-Phosphate Receptor 5 (S1P5). [Related pubchem assays (depositor defined):AID1510, AID1524, AID1692, AID1853, AID2332, AID489009, AID489017]. It is filed as functional.
Chain of Sphingosine 1-phosphate receptor 5 (Q9H228 whole entry): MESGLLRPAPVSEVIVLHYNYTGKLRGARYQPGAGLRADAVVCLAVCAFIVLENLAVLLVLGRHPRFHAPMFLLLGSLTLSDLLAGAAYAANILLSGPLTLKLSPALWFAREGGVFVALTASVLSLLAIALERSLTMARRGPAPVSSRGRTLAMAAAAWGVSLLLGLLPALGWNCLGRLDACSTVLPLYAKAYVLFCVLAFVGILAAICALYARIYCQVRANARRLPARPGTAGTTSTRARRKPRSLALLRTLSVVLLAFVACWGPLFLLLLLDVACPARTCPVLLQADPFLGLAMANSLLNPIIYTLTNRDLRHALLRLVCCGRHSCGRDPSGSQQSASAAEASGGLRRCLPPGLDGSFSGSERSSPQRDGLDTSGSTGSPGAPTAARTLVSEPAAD

The target in experiment [3] is Sphingosine 1-phosphate receptor 3 (Homo sapiens, UniProt Q99500). In words: Late stage counterscreen assay for S1P4 antagonists: Fluorescence dose response cell-based screening assay for antagonists of the Sphingosine 1-Phosphate Receptor 3 (S1P3). [Related pubchem assays (depositor defined):AID1510, AID1524, AID1692, AID1853, AID2332, AID489009, AID489017]. It is filed as functional.
Chain of Sphingosine 1-phosphate receptor 3 (Q99500 whole entry): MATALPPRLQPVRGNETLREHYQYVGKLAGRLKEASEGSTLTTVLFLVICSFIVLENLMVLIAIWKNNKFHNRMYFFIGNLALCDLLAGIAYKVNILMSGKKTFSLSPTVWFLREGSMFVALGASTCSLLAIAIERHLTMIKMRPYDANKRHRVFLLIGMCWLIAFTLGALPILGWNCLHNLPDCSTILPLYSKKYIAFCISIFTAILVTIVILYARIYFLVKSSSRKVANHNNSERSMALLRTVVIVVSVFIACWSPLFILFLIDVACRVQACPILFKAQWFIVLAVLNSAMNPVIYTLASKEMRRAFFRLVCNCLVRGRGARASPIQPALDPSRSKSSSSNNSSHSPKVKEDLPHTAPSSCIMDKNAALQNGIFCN

Experiment [4] deals with T1, Sphingosine 1-phosphate receptor 4 (Homo sapiens, UniProt O95977).
T1 sequence (O95977 whole entry): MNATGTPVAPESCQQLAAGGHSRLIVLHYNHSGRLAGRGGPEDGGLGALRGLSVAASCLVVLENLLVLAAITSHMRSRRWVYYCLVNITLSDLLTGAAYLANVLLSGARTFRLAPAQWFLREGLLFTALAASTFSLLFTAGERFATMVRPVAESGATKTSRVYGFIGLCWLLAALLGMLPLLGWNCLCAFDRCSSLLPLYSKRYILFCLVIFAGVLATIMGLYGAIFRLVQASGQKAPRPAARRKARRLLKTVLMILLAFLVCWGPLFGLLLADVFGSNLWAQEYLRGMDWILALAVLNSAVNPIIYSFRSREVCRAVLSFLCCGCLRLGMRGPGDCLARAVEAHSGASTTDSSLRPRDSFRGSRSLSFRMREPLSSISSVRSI
In words: Fluorescence dose response cell-based high throughput screening assay for agonists of the Sphingosine 1-Phosphate Receptor 4 (S1P4). [Related pubchem assays: 1509 (Primary screen.), 1523 (Confirmation screen in triplicates.)]. The format is functional.

The target of experiment [5] is Sphingosine 1-phosphate receptor 1 (Homo sapiens, UniProt P21453). In words: Fluorescence-based counterscreen assay for S1P4 agonists: Cell-based dose response high throughput screening assay to identify agonists of the Sphingosine 1-Phosphate Receptor 1 (S1P1). [Related pubchem assays (depositor defined):AID1509, AID1523, AID1801, AID463107, AID463118, AID463119, AID463122, AID463123, AID463129, AID463225, AID504400, AID504460]. It is filed as functional.
Chain of Sphingosine 1-phosphate receptor 1 (P21453 whole entry): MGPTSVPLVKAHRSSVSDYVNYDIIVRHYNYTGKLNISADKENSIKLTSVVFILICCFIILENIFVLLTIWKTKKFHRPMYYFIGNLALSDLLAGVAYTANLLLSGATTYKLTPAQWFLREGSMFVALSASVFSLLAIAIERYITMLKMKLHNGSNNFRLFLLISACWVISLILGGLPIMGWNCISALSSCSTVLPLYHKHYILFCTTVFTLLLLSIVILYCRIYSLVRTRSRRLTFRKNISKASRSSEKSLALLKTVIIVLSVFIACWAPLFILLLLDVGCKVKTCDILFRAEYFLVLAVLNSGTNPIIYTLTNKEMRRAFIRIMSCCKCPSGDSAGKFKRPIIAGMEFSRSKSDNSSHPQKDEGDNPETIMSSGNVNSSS

Experiment [6] concerns the target Peroxisome proliferator-activated receptor gamma (Homo sapiens, UniProt P37231). In words: PPARg partial agonists, dose response, cell-based, luminescence, assay provider (AID 504447). The format is functional.
Experiment [7] has as its target Dual specificity protein phosphatase 6 (Rattus norvegicus, UniProt Q64346). Kind of experiment: MKP-3 phosphatase inhibitors, primary screen, biochemical, rat enzyme, in vitro (AID 425).
The target of experiment [8] is T2, Dual specificity protein phosphatase 3 (Homo sapiens, UniProt P51452). Kind of experiment: VHR1 phosphatase inhibitors, primary screen, biochemical, absorbance, uHTS (AID 1654).
T2 sequence (P51452 whole entry): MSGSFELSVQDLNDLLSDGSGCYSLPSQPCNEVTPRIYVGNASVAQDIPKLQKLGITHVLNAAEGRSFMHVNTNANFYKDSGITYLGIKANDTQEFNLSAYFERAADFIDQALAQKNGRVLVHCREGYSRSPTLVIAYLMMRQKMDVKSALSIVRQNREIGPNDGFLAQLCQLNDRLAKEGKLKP
Experiment [9] has as its target T2, Dual specificity protein phosphatase 3. In words: VHR1 phosphatase inhibitors, biochemical (AID 1878).
Experiment [10] concerns the target Voltage-dependent T-type calcium channel subunit alpha-1H (Homo sapiens, UniProt O95180). In words: Cav3.2 T-type channel inhibitors, synthesized analogs, SAR follow-up, cell-based, synthetic library set 2, HEK293 HH8, Fluo-4 (AID 493023). The format is functional.
Experiment [11] addresses Signal transducer and activator of transcription 3 (Homo sapiens, UniProt P40763). Kind of experiment: STAT3 inhibitors, late-stage profile, late-stage follow-up, cell-based, STAT1 panel, qPCR, cytotoxicity, panel member STAT3 Inhibition (AID 2078). In general terms: In qPCR the cycle at which signal appears reflects the starting amount.
Experiment [12] concerns the target Signal transducer and activator of transcription 1-alpha/beta (Homo sapiens, UniProt P42224). In words: STAT3 inhibitors, late-stage profile, late-stage follow-up, cell-based, STAT1 panel, qPCR, cytotoxicity, panel member STAT1 Inhibition (AID 2078).
Experiment [13] concerns the target T3, Delta-type opioid receptor (Homo sapiens, UniProt P41143). In words: DOR agonists, SAR follow-up, image-based (AID 2370). It is filed as functional.
Experiment [14] has as its target T4, Kappa-type opioid receptor (Homo sapiens, UniProt P41145). Kind of experiment: kappa opioid receptor blockers, cell-based, luminescence, beta-arrestin, SAR follow-up (AID 2285). The format is functional.
In experiment [15] the target is T5, Tyrosine-protein phosphatase non-receptor type 7 (Homo sapiens, UniProt P35236).
T5 sequence (P35236 whole entry): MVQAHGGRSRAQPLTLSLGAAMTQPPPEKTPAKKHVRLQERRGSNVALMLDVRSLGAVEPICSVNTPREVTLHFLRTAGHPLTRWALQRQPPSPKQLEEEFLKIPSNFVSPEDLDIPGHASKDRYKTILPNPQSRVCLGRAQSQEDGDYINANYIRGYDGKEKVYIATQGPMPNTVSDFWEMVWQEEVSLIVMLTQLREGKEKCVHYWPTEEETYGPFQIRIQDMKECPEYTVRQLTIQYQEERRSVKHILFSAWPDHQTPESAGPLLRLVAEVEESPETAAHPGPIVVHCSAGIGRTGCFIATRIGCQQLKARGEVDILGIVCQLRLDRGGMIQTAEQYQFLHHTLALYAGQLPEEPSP
Kind of experiment: SAR analysis of chemical inhibitors of HePTP using a Fluorescent assay - Set 2. [Related pubchem assays (depositor defined):AID1059, AID1077, AID1661, AID2085, AID521]. The format is functional.

Experiment [16] has as its target T6, Mu-type opioid receptor (Homo sapiens, UniProt P35372). In words: MOR antagonists, SAR follow-up, image-based (AID 2420).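 Also: compounds added before stimulation of receptor with agonist DAMGO.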 It is filed as functional.
The target of experiment [17] is T4, Kappa-type opioid receptor. In words: KOR agonist analogs, imaging readout, SAR follow-up, image-based (AID 2359). The format is functional.
Experiment [18] deals with T2, Dual specificity protein phosphatase 3. In words: SAR VHR1 Fluorescent Assay for In Vitro dose response studies Set 2. [Related pubchem assays (depositor defined):AID1654, AID1661, AID1878]. It is filed as functional.
Experiment [19] concerns the target T3, Delta-type opioid receptor. Kind of experiment: DOR antagonists, SAR follow-up, image-based (AID 2357). It is filed as functional.
The target of experiment [20] is T4, Kappa-type opioid receptor. In words: KOR antagonists by imaging, SAR follow-up, image-based (AID 2348). The format is functional.
Experiment [21] addresses T6, Mu-type opioid receptor. Kind of experiment: MOR agonists by imaging, SAR follow-up, image-based (AID 2352). The format is functional.

T4 sequence (P41145 whole entry): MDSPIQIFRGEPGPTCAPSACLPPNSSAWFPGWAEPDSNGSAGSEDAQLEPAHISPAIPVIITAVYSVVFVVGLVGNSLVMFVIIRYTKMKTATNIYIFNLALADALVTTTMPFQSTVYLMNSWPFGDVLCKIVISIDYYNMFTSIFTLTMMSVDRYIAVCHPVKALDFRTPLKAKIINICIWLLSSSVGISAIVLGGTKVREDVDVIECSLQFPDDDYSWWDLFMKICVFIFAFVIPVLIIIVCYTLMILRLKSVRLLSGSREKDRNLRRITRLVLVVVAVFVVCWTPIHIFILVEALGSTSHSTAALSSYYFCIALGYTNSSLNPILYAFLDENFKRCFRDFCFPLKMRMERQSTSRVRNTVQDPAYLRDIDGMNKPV
T6 sequence (P35372 whole entry): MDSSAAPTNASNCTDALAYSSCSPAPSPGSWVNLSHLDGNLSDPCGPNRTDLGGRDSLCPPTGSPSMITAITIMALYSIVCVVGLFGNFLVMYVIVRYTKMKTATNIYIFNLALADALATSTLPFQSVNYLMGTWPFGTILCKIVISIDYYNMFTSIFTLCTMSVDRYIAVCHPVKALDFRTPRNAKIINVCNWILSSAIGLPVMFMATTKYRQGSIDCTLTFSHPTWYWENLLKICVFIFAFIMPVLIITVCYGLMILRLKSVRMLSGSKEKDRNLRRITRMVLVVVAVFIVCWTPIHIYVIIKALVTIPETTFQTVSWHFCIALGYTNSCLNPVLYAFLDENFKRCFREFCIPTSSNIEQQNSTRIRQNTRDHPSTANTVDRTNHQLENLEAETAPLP
T3 sequence (P41143 whole entry): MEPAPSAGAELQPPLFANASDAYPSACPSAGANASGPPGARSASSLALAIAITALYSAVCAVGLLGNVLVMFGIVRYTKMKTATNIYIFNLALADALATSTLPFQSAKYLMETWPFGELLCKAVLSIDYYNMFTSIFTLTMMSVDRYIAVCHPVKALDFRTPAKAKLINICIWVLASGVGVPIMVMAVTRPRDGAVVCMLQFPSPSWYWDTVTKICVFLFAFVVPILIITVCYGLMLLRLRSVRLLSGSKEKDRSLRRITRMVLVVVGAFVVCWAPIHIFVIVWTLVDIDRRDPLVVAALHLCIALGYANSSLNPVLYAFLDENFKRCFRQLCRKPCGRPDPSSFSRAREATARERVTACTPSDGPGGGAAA
Chain of Signal transducer and activator of transcription 3 (P40763 whole entry): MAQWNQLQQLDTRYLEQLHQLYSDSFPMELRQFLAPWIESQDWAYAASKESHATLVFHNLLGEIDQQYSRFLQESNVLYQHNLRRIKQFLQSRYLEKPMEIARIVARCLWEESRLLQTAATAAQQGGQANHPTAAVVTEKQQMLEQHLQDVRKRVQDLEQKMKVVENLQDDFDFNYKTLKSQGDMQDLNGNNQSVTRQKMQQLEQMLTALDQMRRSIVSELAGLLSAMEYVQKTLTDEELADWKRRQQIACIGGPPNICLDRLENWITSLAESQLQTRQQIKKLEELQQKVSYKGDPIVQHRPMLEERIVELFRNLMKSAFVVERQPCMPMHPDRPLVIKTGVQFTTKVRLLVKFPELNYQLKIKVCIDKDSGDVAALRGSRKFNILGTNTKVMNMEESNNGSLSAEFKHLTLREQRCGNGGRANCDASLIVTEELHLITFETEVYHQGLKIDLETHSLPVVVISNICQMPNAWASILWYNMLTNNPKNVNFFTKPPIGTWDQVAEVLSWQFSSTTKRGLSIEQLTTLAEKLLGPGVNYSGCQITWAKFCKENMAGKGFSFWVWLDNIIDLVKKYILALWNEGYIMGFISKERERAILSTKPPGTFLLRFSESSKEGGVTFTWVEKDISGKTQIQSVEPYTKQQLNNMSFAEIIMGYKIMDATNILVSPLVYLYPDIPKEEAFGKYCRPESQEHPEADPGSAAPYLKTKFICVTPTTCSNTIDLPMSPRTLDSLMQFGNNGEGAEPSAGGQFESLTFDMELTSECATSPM
Chain of Peroxisome proliferator-activated receptor gamma (P37231 whole entry): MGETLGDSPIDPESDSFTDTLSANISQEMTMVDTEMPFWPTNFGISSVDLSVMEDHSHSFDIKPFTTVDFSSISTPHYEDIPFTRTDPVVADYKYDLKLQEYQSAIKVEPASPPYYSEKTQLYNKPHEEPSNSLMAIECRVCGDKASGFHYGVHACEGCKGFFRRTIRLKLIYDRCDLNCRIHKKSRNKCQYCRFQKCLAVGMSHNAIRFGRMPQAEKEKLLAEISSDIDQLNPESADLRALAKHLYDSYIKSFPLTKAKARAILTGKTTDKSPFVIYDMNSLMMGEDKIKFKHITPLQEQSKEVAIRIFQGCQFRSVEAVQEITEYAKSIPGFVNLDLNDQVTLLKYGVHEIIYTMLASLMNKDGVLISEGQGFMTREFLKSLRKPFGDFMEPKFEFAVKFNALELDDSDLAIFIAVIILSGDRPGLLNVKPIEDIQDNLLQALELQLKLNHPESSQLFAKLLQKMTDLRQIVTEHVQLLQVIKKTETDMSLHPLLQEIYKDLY
Chain of Dual specificity protein phosphatase 6 (Q64346 whole entry): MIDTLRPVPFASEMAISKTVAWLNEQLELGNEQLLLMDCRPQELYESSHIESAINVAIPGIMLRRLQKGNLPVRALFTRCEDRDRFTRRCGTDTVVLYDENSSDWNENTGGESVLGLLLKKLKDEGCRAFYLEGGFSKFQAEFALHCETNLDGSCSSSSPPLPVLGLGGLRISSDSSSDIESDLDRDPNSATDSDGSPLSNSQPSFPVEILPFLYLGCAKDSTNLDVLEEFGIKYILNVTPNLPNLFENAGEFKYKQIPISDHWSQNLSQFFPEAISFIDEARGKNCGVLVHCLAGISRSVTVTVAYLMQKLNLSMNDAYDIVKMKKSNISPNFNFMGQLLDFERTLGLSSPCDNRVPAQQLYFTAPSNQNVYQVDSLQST
Chain of Signal transducer and activator of transcription 1-alpha/beta (P42224 whole entry): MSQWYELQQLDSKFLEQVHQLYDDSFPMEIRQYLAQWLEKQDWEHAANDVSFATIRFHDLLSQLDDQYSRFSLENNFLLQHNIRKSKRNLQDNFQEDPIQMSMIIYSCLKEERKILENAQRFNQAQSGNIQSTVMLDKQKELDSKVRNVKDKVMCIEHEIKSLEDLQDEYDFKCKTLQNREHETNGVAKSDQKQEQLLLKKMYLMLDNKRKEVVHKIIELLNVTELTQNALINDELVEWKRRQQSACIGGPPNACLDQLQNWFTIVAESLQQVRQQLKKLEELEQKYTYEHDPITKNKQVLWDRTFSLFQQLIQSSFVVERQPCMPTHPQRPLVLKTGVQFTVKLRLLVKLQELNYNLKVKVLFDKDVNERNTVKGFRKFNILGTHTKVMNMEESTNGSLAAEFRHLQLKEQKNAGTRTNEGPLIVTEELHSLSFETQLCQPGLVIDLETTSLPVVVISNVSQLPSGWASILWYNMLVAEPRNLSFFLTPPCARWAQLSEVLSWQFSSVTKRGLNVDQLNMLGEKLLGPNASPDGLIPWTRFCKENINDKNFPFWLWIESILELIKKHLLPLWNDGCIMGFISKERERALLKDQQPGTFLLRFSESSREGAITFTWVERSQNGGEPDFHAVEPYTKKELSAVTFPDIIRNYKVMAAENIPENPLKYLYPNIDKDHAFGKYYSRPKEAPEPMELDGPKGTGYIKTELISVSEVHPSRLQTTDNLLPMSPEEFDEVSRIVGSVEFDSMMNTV

Take `Cc1cccc(C)c1NC(=O)c1ccc(-c2cc(Cl)ccc2Cl)o1`: the results for the IC50 in [1], in experiment [2] and in experiment [3] were 7.88 µM (active), > 25 µM (inactive) and 19.5 µM (inactive), respectively.
In the case of `COc1cccc(C2CN(c3ccc(F)cc3F)N=C2c2cccs2)c1OC` (stereo unspecified), the EC50 was 11.1 µM (not active) in [4] and 7.49 µM (active) in experiment [5].
On to `O=C(Nc1ccccc1Cl)C(=O)c1cn(CC(=O)N2CCOCC2)c2ccccc12`, for which, in experiment [6], the EC50 was 2 µM (active).
Regarding `O=C(O)C1CCC(N2C(=O)c3c(Cl)c(Cl)c(Cl)c(Cl)c3C2=O)CC1` (stereo unspecified), the results for the IC50 in experiment [7], in experiment [8] and in experiment [9] were 113 µM (not active), 5.1 µM (active) and 3.6 µM (active), respectively.
As to `CC(C)(C)CCN1CCC[C@H](NC(=O)COc2ccccc2Cl)C1`, in experiment [10], the EC50 is 10 µM (active).
Consider `c1ccc(Cc2nc(N3CCC(Cc4ccccc4)CC3)c3c4c(sc3n2)CCCC4)cc1`, for which the IC50 in experiment [11] and in experiment [12] was > 55.7 µM (inactive) in each case.
Consider `Cc1ccc(NC(=S)NC(NC(=O)OCc2ccccc2)C(Cl)(Cl)Cl)cc1` (stereo unspecified), for which the EC50 (in experiment [13]; in experiment [17]; on Mu-type opioid receptor [21]) was > 32 µM (inactive) throughout. Also, the IC50 in experiment [14] was > 10 µM (inactive); in [15], > 100 µM (inactive); at Mu-type opioid receptor [16], > 32 µM (inactive); in experiment [18], > 100 µM (inactive); in [19], > 32 µM (inactive); in experiment [20], > 32 µM (inactive).
